Test results reported in US20250034136A1 (Nimbus Wadjet, Inc., priority 2023, published 2025).

Columns and labels:
[1] = target: WRN (BV08), human Werner helicase (Uniprot Q14191, amino acids 517-1235 with L1074F point mutation) (Homo sapiens (Human), UniProt Q14191, L1074F); experiment: WRN (BV08) ADP-Glo assay; type: biochemical; conditions: class symbols A-E, read-out: ADP-Glo_hWRN_IC50
[2] = tested on: p21 induction in HCT116 cells; experiment: p21 induction in HCT116 cells; type: cell-based; conditions: Homo sapiens, HCT-116, 24 h, HCT116 cells, 24 h compound incubation; read-out: P21_EC50
In short: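 EC50 from non-linear curve fit of p21 immunofluorescence (800 nm), with GAPDH (700 nm) read alongside. DMSO and a reference WRN inhibitor served as low and high controls. Cells (2,000/well) got 11 compound concentrations in duplicate for 24 h at 37 °C.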

WRN (BV08), human Werner helicase (Uniprot Q14191, amino acids 517-1235 with L1074F point mutation), sequence (Q14191 other isoform, or with tags, fused parts or gaps L1074F (already in the parent)): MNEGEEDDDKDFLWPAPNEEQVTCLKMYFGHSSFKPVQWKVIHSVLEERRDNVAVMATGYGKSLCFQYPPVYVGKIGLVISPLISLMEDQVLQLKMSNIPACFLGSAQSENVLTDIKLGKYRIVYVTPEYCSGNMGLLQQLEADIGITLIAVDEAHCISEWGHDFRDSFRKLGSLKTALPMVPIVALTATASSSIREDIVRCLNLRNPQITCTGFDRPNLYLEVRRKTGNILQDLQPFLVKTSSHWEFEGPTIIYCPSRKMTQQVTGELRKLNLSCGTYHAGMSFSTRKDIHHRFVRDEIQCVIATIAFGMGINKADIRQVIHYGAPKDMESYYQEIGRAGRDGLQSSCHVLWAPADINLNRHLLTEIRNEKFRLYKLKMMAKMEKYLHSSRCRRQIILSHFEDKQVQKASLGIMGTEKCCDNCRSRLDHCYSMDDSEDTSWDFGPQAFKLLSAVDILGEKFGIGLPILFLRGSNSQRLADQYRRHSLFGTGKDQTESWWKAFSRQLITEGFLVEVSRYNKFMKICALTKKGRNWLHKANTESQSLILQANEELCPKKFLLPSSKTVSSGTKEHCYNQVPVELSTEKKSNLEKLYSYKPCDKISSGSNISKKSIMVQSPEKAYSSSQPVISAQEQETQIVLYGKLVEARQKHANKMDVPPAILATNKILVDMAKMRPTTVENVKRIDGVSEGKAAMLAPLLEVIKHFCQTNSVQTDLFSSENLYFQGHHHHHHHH

| Structure (SMILES) | IC50 [1] [nM] | EC50 [2] [nM] |
| --- | --- | --- |
| CCc1c(N2CCN(C(=O)c3ncnc(C)c3O)C[C@@H]2C)c(=O)c2nc(N(C)C)cnc2n1CC(=O)Nc1ccc(S(F)(F)(F)(F)F)cc1Cl [I-185, N-[2-chloro-4-(pentafluoro-lambda6-sulfanyl)phenyl]-2-[2-(dimethylamino)-6-ethyl-7-[(2S)-4-(5-hydroxy-6-methylpyrimidine-4-carbonyl)-2-methylpiperazin-1-yl]-8-oxo-5H,8H-pyrido[2,3-b]pyrazin-5-yl]acetamide] | 5 to 50 | < 500 |
| CCc1c(N2CCN(C(=O)c3ncnc(C)c3O)CC2)c(=O)c2nc(NCC3CC3)cnc2n1CC(=O)Nc1ccc(C(F)(F)F)cc1Cl [I-186, N-[2-chloro-4-(trifluoromethyl)phenyl]-2-{2-[(cyclopropylmethyl)amino]-6-ethyl-7-[4-(5-hydroxy-6-methylpyrimidine-4-carbonyl)piperazin-1-yl]-8-oxo-5H,8H-pyrido[2,3-b]pyrazin-5-yl}acetamide] | 5 to 50 | 2000 to 5000 |
| CCc1c(N2CCN(C(=O)c3ncnc(C)c3O)C[C@@H]2C)c(=O)c2nc(N3CCC3)cnc2n1CC(=O)Nc1ccc(C(F)(F)F)cc1Cl [I-187, 2-[2-(azetidin-1-yl)-6-ethyl-7-[(2S)-4-(5-hydroxy-6-methylpyrimidine-4-carbonyl)-2-methylpiperazin-1-yl]-8-oxo-5H,8H-pyrido[2,3-b]pyrazin-5-yl]-N-[2-chloro-4-(trifluoromethyl)phenyl]acetamide] | 5 to 50 | 500 to 2000 |
| CCc1c(N2CCN(C(=O)c3ncnc(C)c3O)C[C@@H]2C)c(=O)c2nc(N3CC[C@H]3COC)cnc2n1CC(=O)Nc1ccc(C(F)(F)F)cc1Cl [I-188, N-[2-chloro-4-(trifluoromethyl)phenyl]-2-{6-ethyl-7-[(2S)-4-(5-hydroxy-6-methylpyrimidine-4-carbonyl)-2-methylpiperazin-1-yl]-2-[(2S)-2-(methoxymethyl)azetidin-1-yl]-8-oxo-5H,8H-pyrido[2,3-b]pyrazin-5-yl}acetamide] | 5 to 50 | 500 to 2000 |
| CCc1c(N2CCN(C(=O)c3ncnc(C)c3O)C[C@@H]2C)c(=O)c2nc(N3CC[C@@H]3COC)cnc2n1CC(=O)Nc1ccc(C(F)(F)F)cc1Cl [I-189, N-[2-chloro-4-(trifluoromethyl)phenyl]-2-{6-ethyl-7-[(2S)-4-(5-hydroxy-6-methylpyrimidine-4-carbonyl)-2-methylpiperazin-1-yl]-2-[(2R)-2-(methoxymethyl)azetidin-1-yl]-8-oxo-5H,8H-pyrido[2,3-b]pyrazin-5-yl}acetamide] | 5 to 50 | 500 to 2000 |
| CCc1c(N2CCN(C(=O)c3ncnc(C)c3O)C[C@@H]2C)c(=O)c2nc(N3CCC3)cnc2n1CC(=O)Nc1ccc(S(F)(F)(F)(F)F)cc1Cl [I-190, 2-[2-(azetidin-1-yl)-6-ethyl-7-[(2S)-4-(5-hydroxy-6-methylpyrimidine-4-carbonyl)-2-methylpiperazin-1-yl]-8-oxo-5H,8H-pyrido[2,3-b]pyrazin-5-yl]-N-[2-chloro-4-(pentafluoro-lambda6-sulfanyl)phenyl]acetamide] | 5 to 50 | < 500 |
| CCc1c(N2CCN(C(=O)c3ncnc(C)c3O)C[C@@H]2CC)c(=O)c2nc(N(C)C)cnc2n1CC(=O)Nc1ccc(C(F)(F)F)cc1Cl [I-191, N-[2-chloro-4-(trifluoromethyl)phenyl]-2-[2-(dimethylamino)-6-ethyl-7-[(2S)-2-ethyl-4-(5-hydroxy-6-methylpyrimidine-4-carbonyl)piperazin-1-yl]-8-oxo-5H,8H-pyrido[2,3-b]pyrazin-5-yl]acetamide] | 5 to 50 | 500 to 2000 |
| CCc1c(N2CCN(C(=O)c3ncc4c(c3O)CCO4)CC2)c(=O)c2nc(N(C)C3CC3)cnc2n1CC(=O)Nc1ccc(C(F)(F)F)cc1Cl [I-194, N-[2-chloro-4-(trifluoromethyl)phenyl]-2-{2-[cyclopropyl(methyl)amino]-6-ethyl-7-(4-{4-hydroxy-2H,3H-furo[2,3-c]pyridine-5-carbonyl}piperazin-1-yl)-8-oxo-5H,8H-pyrido[2,3-b]pyrazin-5-yl}acetamide] | ≤ 5 | < 500 |
| CCc1c(N2CCN(C(=O)c3ncnc(C)c3O)CC2)c(=O)c2nc(OC3CC3)cnc2n1CC(=O)Nc1ccc(C(F)(F)F)cc1Cl [I-195, N-[2-chloro-4-(trifluoromethyl)phenyl]-2-{2-cyclopropoxy-6-ethyl-7-[4-(5-hydroxy-6-methylpyrimidine-4-carbonyl)piperazin-1-yl]-8-oxo-5H,8H-pyrido[2,3-b]pyrazin-5-yl}acetamide] | 5 to 50 | 2000 to 5000 |
| CCc1c(N2CCN(C(=O)c3ncnc(C)c3O)[C@@H](C(F)F)C2)c(=O)c2nc(N(C)C)cnc2n1CC(=O)Nc1ccc(C(F)(F)F)cc1Cl [I-197, N-[2-chloro-4-(trifluoromethyl)phenyl]-2-{7-[(3R)-3-(difluoromethyl)-4-(5-hydroxy-6-methylpyrimidine-4-carbonyl)piperazin-1-yl]-2-(dimethylamino)-6-ethyl-8-oxo-5H,8H-pyrido[2,3-b]pyrazin-5-yl}acetamide] | 50 to 100 | > 5000 |
| CCc1c(N2CCN(C(=O)c3ncnc(C)c3O)[C@H]3CC[C@@H]32)c(=O)c2nc(N(C)C)cnc2n1CC(=O)Nc1ccc(OC(F)(F)F)cc1Cl [I-199, N-[2-chloro-4-(trifluoromethoxy)phenyl]-2-[2-(dimethylamino)-6-ethyl-7-[(1S,6S)-5-(5-hydroxy-6-methylpyrimidine-4-carbonyl)-2,5-diazabicyclo[4.2.0]octan-2-yl]-8-oxo-5H,8H-pyrido[2,3-b]pyrazin-5-yl]acetamide] | 5 to 50 | < 500 |
| CCc1c(N2CCN(C(=O)c3ncnc(C)c3O)[C@H]3CC[C@@H]32)c(=O)c2nc(N(C)C)cnc2n1CC(=O)Nc1ccc(S(F)(F)(F)(F)F)cc1Cl [I-200, N-[2-chloro-4-(pentafluoro-lambda6-sulfanyl)phenyl]-2-[2-(dimethylamino)-6-ethyl-7-[(1S,6S)-5-(5-hydroxy-6-methylpyrimidine-4-carbonyl)-2,5-diazabicyclo[4.2.0]octan-2-yl]-8-oxo-5H,8H-pyrido[2,3-b]pyrazin-5-yl]acetamide] | 5 to 50 | < 500 |
| CCc1c(N2CCN(C(=O)c3ncnc(C)c3O)CC2)c(=O)c2nc(-n3cccn3)cnc2n1CC(=O)Nc1ccc(C(F)(F)F)cc1Cl [I-201, N-[2-chloro-4-(trifluoromethyl)phenyl]-2-{6-ethyl-7-[4-(5-hydroxy-6-methylpyrimidine-4-carbonyl)piperazin-1-yl]-8-oxo-2-(1H-pyrazol-1-yl)-5H,8H-pyrido[2,3-b]pyrazin-5-yl}acetamide] | 5 to 50 | 2000 to 5000 |
| CCc1c(N2CCN(C(=O)c3ncc4c(c3O)OCC4)CC2)c(=O)c2nc(N(C)C3CC3)cnc2n1CC(=O)Nc1ccc(C(F)(F)F)cc1Cl [I-203, N-[2-chloro-4-(trifluoromethyl)phenyl]-2-{2-[cyclopropyl(methyl)amino]-6-ethyl-7-(4-{7-hydroxy-2H,3H-furo[3,2-c]pyridine-6-carbonyl}piperazin-1-yl)-8-oxo-5H,8H-pyrido[2,3-b]pyrazin-5-yl}acetamide] | ≤ 5 | 500 to 2000 |
| CCc1c(N2CCN(C(=O)c3c(OC)ncc(C)c3O)CC2)c(=O)c2nc(N(C)C)cnc2n1CC(=O)Nc1ccc(C(F)(F)F)cc1Cl [I-204, N-[2-chloro-4-(trifluoromethyl)phenyl]-2-[2-(dimethylamino)-6-ethyl-7-[4-(4-hydroxy-2-methoxy-5-methylpyridine-3-carbonyl)piperazin-1-yl]-8-oxo-5H,8H-pyrido[2,3-b]pyrazin-5-yl]acetamide] | 5 to 50 | < 500 |
| CCc1c(N2CCN(C(=O)c3ncnc(C)c3O)CC2)c(=O)c2nc(N(C)C3(C)CC3)cnc2n1CC(=O)Nc1ccc(C(F)(F)F)cc1Cl [I-205, N-[2-chloro-4-(trifluoromethyl)phenyl]-2-{6-ethyl-7-[4-(5-hydroxy-6-methylpyrimidine-4-carbonyl)piperazin-1-yl]-2-[methyl(1-methylcyclopropyl)amino]-8-oxo-5H,8H-pyrido[2,3-b]pyrazin-5-yl}acetamide] | 5 to 50 | < 500 |
| CCc1c(N2C[C@H]3CC[C@@H](C2)N3C(=O)c2ncnc(C)c2O)c(=O)c2nc(N(C)C)cnc2n1CC(=O)Nc1ccc(C(F)(F)F)cc1Cl [I-206, N-[2-chloro-4-(trifluoromethyl)phenyl]-2-[2-(dimethylamino)-6-ethyl-7-[(1R,5S)-8-(5-hydroxy-6-methylpyrimidine-4-carbonyl)-3,8-diazabicyclo[3.2.1]octan-3-yl]-8-oxo-5H,8H-pyrido[2,3-b]pyrazin-5-yl]acetamide] | 5 to 50 | > 5000 |
| CCc1c(N2CCN(C(=O)c3ncnc(C)c3O)CC2)c(=O)c2nc(N3CCC34COC4)cnc2n1CC(=O)Nc1ccc(C(F)(F)F)cc1Cl [I-207, N-[2-chloro-4-(trifluoromethyl)phenyl]-2-{6-ethyl-7-[4-(5-hydroxy-6-methylpyrimidine-4-carbonyl)piperazin-1-yl]-2-{6-oxa-1-azaspiro[3.3]heptan-1-yl}-8-oxo-5H,8H-pyrido[2,3-b]pyrazin-5-yl}acetamide] | 5 to 50 | 2000 to 5000 |
| CCc1c(N2CCN(C(=O)c3ncnc(C)c3O)[C@H]3CC[C@@H]32)c(=O)c2nc(N(C)C)cnc2n1CC(=O)Nc1ccc(OC(F)(F)F)cc1F [I-210, 2-[2-(dimethylamino)-6-ethyl-7-[(1S,6S)-5-(5-hydroxy-6-methylpyrimidine-4-carbonyl)-2,5-diazabicyclo[4.2.0]octan-2-yl]-8-oxo-5H,8H-pyrido[2,3-b]pyrazin-5-yl]-N-[2-fluoro-4-(trifluoromethoxy)phenyl]acetamide] | 5 to 50 | < 500 |
| [2H]C([2H])([2H])N(c1nc2c(=O)c(N3CCN(C(=O)c4ncnc(C)c4O)[C@H]4CC[C@@H]43)c(CC)n(CC(=O)Nc3ccc(C(F)(F)F)cc3F)c2nc1C)C([2H])([2H])[2H] [I-211] | 5 to 50 | < 500 |
